The first experiment concerns the target hLPAR1 (human lysophosphatidic acid receptor 1, Accession No.: NM_001401.4) (Homo sapiens, UniProt Q92633). Put plainly: cell-based. The conditions noted are these: LPAR1 inhibitory activity IC50, Table 1; FLIPR method, CHO-K1 cells overexpressing hLPAR1. As to the method: The antagonist properties of the compounds in the present disclosure were determined using the FLIPR (Fluorometric Imaging Plate Reader) method in CHO-K1 cells (Chinese Hamster Ovary cells K1, ATCC) overexpressing hLPAR1 (human lysophosphatidic acid receptor 1, Accession No.: NM_001401.4).
CHO-K1 cells stably expressing hLPAR1 were placed in a cell culture incubator at 37°C with 5% CO2 and cultured in F-12 medium containing 10% FBS (fetal bovine serum, Gibco, 10099-141), 1% penicillin-streptomycin (Gibco, 15140-122), and 0.4 mg/mL Hygromycin B (Gibco, 10687010). 18-24 hours before the FLIPR experiment, the cells were seeded into a 96-well plate at a density of 250,000 cells/mL (25,000 cells/well) and incubated overnight in the cell culture incubator. On the day of the experiment, the medium was removed, and the cells were washed with FLIPR buffer (2.5 mM probenecid (Thermo, P36400), 1.3 mM CaCl2, 3.3 mM Na2CO3, 1 mM MgSO4, 20 mM HEPES (Invitrogen, 15630080), 1× HBSS (Invitrogen, 14065056), 0.1% BSA (BioSharp, 70080030)). 75 µL of […] Fluo-4 AM fluorescent dye (Thermo, F14202) was added to each well and incubated for 1.0 hour at 37°C for dye loading. The 96-well plate was then washed once with buffer, and 50 µL of buffer containing the test compound or vehicle was added to each well, followed by incubation at room temperature for 30 min. The cell plate was then placed into the FLIPR for baseline fluorescence measurement (excitation wavelength at 485 nm, emission wavelength at 525 to 535 nm). Subsequently, 50 µL/well of agonist (final concentration 1 µM oleoyl-L-α-lysophosphatidic acid sodium salt (Sigma, L7260)) or vehicle (ultrapure water) was added, and fluorescence values were measured at 1-second intervals for 2 min. Finally, the output fluorescence counts were analyzed using GraphPad Prism 9.0 software log(inhibitor) vs. response--Variable slope (four parameters) equation to calculate IC50 values.
Table 1: Inhibitory activity data of compounds against LPAR1
hLPAR1 (human lysophosphatidic acid receptor 1, Accession No.: NM_001401.4), sequence (Q92633 whole entry): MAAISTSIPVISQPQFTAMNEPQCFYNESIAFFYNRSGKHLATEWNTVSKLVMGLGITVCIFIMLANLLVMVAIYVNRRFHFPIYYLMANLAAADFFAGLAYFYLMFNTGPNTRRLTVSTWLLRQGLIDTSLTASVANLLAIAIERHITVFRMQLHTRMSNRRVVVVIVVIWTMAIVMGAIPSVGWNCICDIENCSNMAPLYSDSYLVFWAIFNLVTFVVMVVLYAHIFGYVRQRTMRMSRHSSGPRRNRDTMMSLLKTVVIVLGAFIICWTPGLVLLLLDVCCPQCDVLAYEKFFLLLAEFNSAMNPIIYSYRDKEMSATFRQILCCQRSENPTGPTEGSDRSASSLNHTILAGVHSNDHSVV
Take `Cc1nc(-c2nnn(C)c2NC(=O)OC(C)C2CC2(F)F)ccc1C#CC1(CC(=O)O)CC1` (stereo not drawn) [compound 081]: the IC50 was found to be 174 nM.
On the same count and under the same terms, then `Cc1nc(-c2nnn(C)c2CNC(=O)OCc2cc(F)cnc2Cl)ccc1C#CC1(CC(=O)O)CC1` [compound 117], with 79.4 nM; and `Cc1nc(-c2nnn(C)c2NC(=O)O[C@H](C)CC(C)C)ccc1C#CC1(CC(=O)O)CC1` [compound 220], with 15.5 nM.

Staying with this experiment, now noted: Table 1; FLIPR method, CHO-K1 cells overexpressing hLPAR1; read-out: LPAR1 inhibitory activity IC50.
Regarding `CCCC(C)OC(=O)Nc1c(-c2ccc(C#CC3(CC(=O)O)CC3)c(C)n2)nnn1C` (stereo not drawn) [compound 010, 2-(1-((2-methyl-6-(1-methyl-5-(((pentan-2-yloxy)carbonyl)amino)-1H-1,2,3-triazol-4-yl)pyridin-3-yl)ethynyl)cyclopropyl)acetic acid], the IC50 was found to be 56.2 nM.
Still for that read-out and setting: then `Cc1nc(-c2nnn(C)c2NC(=O)O[C@H](C)c2ccccc2Cl)ccc1C#CC1(CC(=O)O)CC1` [compound 013, (R)-2-(1-((6-(5-(((1-(2-chlorophenyl)ethoxy)carbonyl)amino)-1-methyl-1H-1,2,3-triazol-4-yl)-2-methylpyridin-3-yl)ethynyl)cyclopropyl)acetic acid], with 2.6 nM; and `Cc1nc(-c2nnn(C)c2NC(=O)O[C@H](C)c2ccccc2F)ccc1C#CC1(CC(=O)O)CC1` [compound 014, (R)-2-(1-((6-(5-(((1-(2-fluorophenyl)ethoxy)carbonyl)amino)-1-methyl-1H-1,2,3-triazol-4-yl)-2-methylpyridin-3-yl)ethynyl)cyclopropyl)acetic acid], with 7.7 nM; and `Cc1nc(-c2nnn(C)c2COC(=O)N(C)C2CCCC2)ccc1C#CC1(CC(=O)O)CC1` [compound 018, 2-(1-((6-(5-(((cyclopentyl(methyl)carbamoyl)oxy)methyl)-1-methyl-1H-1,2,3-triazol-4-yl)-2-methylpyridin-3-yl)ethynyl)cyclopropyl)acetic acid], with 55.2 nM.
Still for that read-out and setting: then `Cc1nc(-c2nnn(C)c2NC(=O)O[C@H](C)c2ccccc2)ccc1C#CC1(CC(=O)O)CC1` [compound 022, (R)-2-(1-((2-methyl-6-(1-methyl-5-(((1-phenylethoxy)carbonyl)amino)-1H-1,2,3-triazol-4-yl)pyridin-3-yl)ethynyl)cyclopropyl)acetic acid], with 9.5 nM.
Turning to `Cc1nc(-c2nnn(C)c2NC(=O)OC(C)c2cc(F)cnc2Cl)ccc1C#CC1(CC(=O)O)CC1` (stereo not drawn) [compound 023, 2-(1-((6-(5-(((1-(2-chloro-5-fluoropyridin-3-yl)ethoxy)carbonyl)amino)-1-methyl-1H-1,2,3-triazol-4-yl)-2-methylpyridin-3-yl)ethynyl)cyclopropyl)acetic acid], the IC50 turned out to be 45.2 nM.
Same read-out and setting: the result for `Cc1nc(-c2nnn(C)c2COC(=O)N(C)CC2CCC2(F)F)ccc1C#CC1(CC(=O)O)CC1` (stereo not drawn) [compound 026, 2-(1-((6-(5-(((((2,2-difluorocyclobutyl)methyl)(methyl)carbamoyl)oxy)methyl)-1-methyl-1H-1,2,3-triazol-4-yl)-2-methylpyridin-3-yl)ethynyl)cyclopropyl)acetic acid] reads 52.7 nM.
In the case of `Cc1nc(-c2nnn(C)c2NC(=O)OC(C)C2CC(F)(F)C2)ccc1C#CC1(CC(=O)O)CC1` (stereo not drawn) [compound 029, 2-(1-((6-(5-(((1-(3,3-difluorocyclobutyl)ethoxy)carbonyl)amino)-1-methyl-1H-1,2,3-triazol-4-yl)-2-methylpyridin-3-yl)ethynyl)cyclopropyl)acetic acid], the IC50 worked out at 219 nM.
Same read-out and setting: then `Cc1nc(-c2nnn(C)c2COC(=O)N(C)[C@H](C)C2CC2)ccc1C#CC1(CC(=O)O)CC1` [compound 030, (R)-2-(1-((6-(5-((((1-cyclopropylethyl)(methyl)carbamoyl)oxy)methyl)-1-methyl-1H-1,2,3-triazol-4-yl)-2-methylpyridin-3-yl)ethynyl)cyclopropyl)acetic acid], with 33.6 nM; and `Cc1nc(-c2nnn(C)c2COC(=O)N(C)CCCCF)ccc1C#CC1(CC(=O)O)CC1` [compound 034, 2-(1-((6-(5-((((4-fluorobutyl)(methyl)carbamoyl)oxy)methyl)-1-methyl-1H-1,2,3-triazol-4-yl)-2-methylpyridin-3-yl)ethynyl)cyclopropyl)acetic acid], with 52.7 nM.
Take `CCC(F)CN(C)C(=O)OCc1c(-c2ccc(C#CC3(CC(=O)O)CC3)c(C)n2)nnn1C` (stereo not drawn) [compound 036, 2-(1-((6-(5-((((2-fluorobutyl)(methyl)carbamoyl)oxy)methyl)-1-methyl-1H-1,2,3-triazol-4-yl)-2-methylpyridin-3-yl)ethynyl)cyclopropyl)acetic acid]: the IC50 amounted to 103 nM.
On to `Cc1nc(-c2nnn(C)c2COC(=O)N(C)CCC(C)F)ccc1C#CC1(CC(=O)O)CC1` (stereo not drawn) [compound 037, 2-(1-((6-(5-((((3-fluorobutyl)(methyl)carbamoyl)oxy)methyl)-1-methyl-1H-1,2,3-triazol-4-yl)-2-methylpyridin-3-yl)ethynyl)cyclopropyl)acetic acid], for which the IC50 worked out at 105 nM.
As to `Cc1nc(-c2nnn(C)c2COC(=O)N(C)CCC(C)(F)F)ccc1C#CC1(CC(=O)O)CC1` [compound 038, 2-(1-((6-(5-((((3,3-difluorobutyl)(methyl)carbamoyl)oxy)methyl)-1-methyl-1H-1,2,3-triazol-4-yl)-2-methylpyridin-3-yl)ethynyl)cyclopropyl)acetic acid], the IC50 was 51.1 nM.
The same measure, in the same setting: the result for `Cc1nc(-c2nnn(C)c2COC(=O)N(C)CC2CCCC2)ccc1C#CC1(CC(=O)O)CC1` [compound 039, 2-(1-((6-(5-((((cyclopentylmethyl)(methyl)carbamoyl)oxy)methyl)-1-methyl-1H-1,2,3-triazol-4-yl)-2-methylpyridin-3-yl)ethynyl)cyclopropyl)acetic acid] reads 4.2 nM.
Same read-out and setting: the result for `Cc1nc(-c2nnn(C)c2COC(=O)N(C)CC2CC2(F)F)ccc1C#CC1(CC(=O)O)CC1` (stereo not drawn) [compound 068] reads 129 nM.
The same measure, in the same setting: the result for `Cc1nc(-c2nnn(C)c2COC(=O)N(C)CC2CC2C)ccc1C#CC1(CC(=O)O)CC1` (stereo not drawn) [compound 073] reads 79.1 nM; that for `CCC(F)(F)CN(C)C(=O)OCc1c(-c2ccc(C#CC3(CC(=O)O)CC3)c(C)n2)nnn1C` [compound 082], 157 nM.
`Cc1nc(-c2nnn(C)c2COC(=O)N(C)CC2CCC(F)(F)C2)ccc1C#CC1(CC(=O)O)CC1` (stereo not drawn) [compound 094]: the IC50 worked out at 30.1 nM.
The same measure, in the same setting: then `Cc1nc(-c2nnn(C)c2COC(=O)N(C)CC2CCCC2(F)F)ccc1C#CC1(CC(=O)O)CC1` (stereo not drawn) [compound 095], with 39.9 nM; and `CCCCN(C)C(=O)OCc1c(-c2ccc(C#CC3(CC(=O)O)CC3)c(CC)n2)nnn1C` [compound 100], with 44.3 nM.
As to `Cc1nc(-c2nnn(C)c2COc2nccc(C3CCC3)n2)ccc1C#CC1(CC(=O)O)CC1` [compound 194], the IC50 stood at 42.5 nM.
For `CCC(F)(F)[C@@H](C)OC(=O)Nc1c(-c2ccc(C#CC3(CC(=O)O)CC3)c(Cl)n2)nnn1C` [compound 209, (R)-2-(1-((2-chloro-6-(5-((((3,3-difluoropentan-2-yl)oxy)carbonyl)amino)-1-methyl-1H-1,2,3-triazol-4-yl)pyridin-3-yl)ethynyl)cyclopropyl)acetic acid], the 50% inhibitory concentration (IC50) came out at 12.7 nM.
On the same count and under the same terms, then `Cc1nc(-c2nnn(C)c2COC(=O)N(C)C(C)C2CCC2)ccc1C#CC1(CC(=O)O)CC1` (stereo not drawn) [compound 211, 2-(1-((6-(5-((((1-cyclobutylethyl)(methyl)carbamoyl)oxy)methyl)-1-methyl-1H-1,2,3-triazol-4-yl)-2-methylpyridin-3-yl)ethynyl)cyclopropyl)acetic acid], with 13.8 nM; and `CCCc1ccnc(OCc2c(-c3ccc(C#CC4(CC(=O)O)CC4)c(C)n3)nnn2C)n1` [compound 217, 2-(1-((2-methyl-6-(1-methyl-5-(((4-propylpyrimidin-2-yl)oxy)methyl)-1H-1,2,3-triazol-4-yl)pyridin-3-yl)ethynyl)cyclopropyl)acetic acid], with 26.6 nM; and `CN(CCCCF)C(=O)OCc1c(-c2ccc(C#CC3(CC(=O)O)CC3)c(C3CC3)n2)nnn1C` [compound 218, 2-(1-((2-cyclopropyl-6-(5-((((4-fluorobutyl)(methyl)carbamoyl)oxy)methyl)-1-methyl-1H-1,2,3-triazol-4-yl)pyridin-3-yl)ethynyl)cyclopropyl)acetic acid], with 90.2 nM.
On to `Cc1nc(-c2nnn(C)c2NC(=O)O[C@H](C)c2ccccc2)ccc1C#C[C@@H]1CC(F)(F)C[C@H]1C(=O)O` [compound 226], for which the IC50 came out at 0.4 nM.

The experiment is the same for the next values; noted with them: read-out: LPAR1 inhibitory activity IC50; Table 1; FLIPR method, CHO-K1 cells overexpressing hLPAR1.
Regarding `Cc1nc(-c2nnn(C)c2COC(=O)N(C)CC2CCC2)ccc1C#CC1(CC(=O)O)CC1` [compound 017], the IC50 turned out to be 42.8 nM.

The values above are taken from patent EP4755881A1 (Wuhan Createrna Science and Technology Co., Ltd., priority 2023, dated 2025).
